ChEMBL document CHEMBL4402557, “Nidufexor (LMB763), a Novel FXR Modulator for the Treatment of Nonalcoholic Steatohepatitis” (J Med Chem, 2020)
pEC50: −log10 of the molar value.

What was measured:
[1] = Cmax in Wistar rat at 100 mg/kg, po; type: ADME, organism-based; set-up: dose 100 mg/kg, route oral; details: in vivo
[2] = Oral bioavailability in rabbit at 10 mg/kg; type: ADME, organism-based, Oryctolagus cuniculus; details: in vivo
[3] = Half life in Wistar rat at 300 mg/kg, po; type: ADME, organism-based; details: in vivo
[4] = Ratio of AUC in liver to plasma in Wistar rat liver at 10 mg/kg, po; type: ADME, organism-based; details: read-out: Ratio AUC
[5] = Oral bioavailability in Wistar rat at 100 mg/kg in presence of TRIS salt; type: ADME, organism-based; details: in vivo
[6] = Half life in mouse at 3 mg/kg, iv; type: ADME, organism-based; details: in vivo
[7] = Half life in Wistar rat at 3 mg/kg, po; type: ADME, organism-based; details: in vivo
[8] = target: T1, Bile acid receptor (Homo sapiens, UniProt Q96RI1); assay: Agonist activity at GST-tagged human FXR-LBD (193 to 472 residues) using biotinylated SRC-1 peptide as substrate incubated for 1 hrs by HTRF assay
T1 sequence (Q96RI1 whole entry): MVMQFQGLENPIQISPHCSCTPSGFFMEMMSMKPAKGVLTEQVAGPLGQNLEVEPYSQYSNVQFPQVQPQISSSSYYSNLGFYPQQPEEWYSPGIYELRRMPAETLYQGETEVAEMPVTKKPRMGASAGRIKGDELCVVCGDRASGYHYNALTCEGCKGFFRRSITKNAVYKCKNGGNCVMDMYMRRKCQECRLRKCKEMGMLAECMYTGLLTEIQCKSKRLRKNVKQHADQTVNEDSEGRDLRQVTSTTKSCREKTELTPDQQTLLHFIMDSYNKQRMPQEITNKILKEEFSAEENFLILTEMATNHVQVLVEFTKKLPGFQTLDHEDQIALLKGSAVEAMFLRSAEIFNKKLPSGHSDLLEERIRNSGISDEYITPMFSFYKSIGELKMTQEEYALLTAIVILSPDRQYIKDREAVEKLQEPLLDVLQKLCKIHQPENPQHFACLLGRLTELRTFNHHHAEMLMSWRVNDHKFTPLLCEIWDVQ

[9] = test system: Rattus norvegicus; assay: In-vivo agonist activity at FXR in orally dosed Han Wistar rat assessed as upregulation of SHP mRNA level in liver administered via oral gavage once daily for 14 days measured post last dose by qRT-PCR analysis; type: functional, organism-based
[10] = target: T2, Retinoic acid receptor RXR-alpha (Homo sapiens, UniProt P19793); assay: Agonist activity at GAL4-fused RXR LBD (unknown origin) expressed in HEK293T cells incubated for 24 by BrightGlo reagent based assay; type: cell-based
T2 sequence (P19793 whole entry): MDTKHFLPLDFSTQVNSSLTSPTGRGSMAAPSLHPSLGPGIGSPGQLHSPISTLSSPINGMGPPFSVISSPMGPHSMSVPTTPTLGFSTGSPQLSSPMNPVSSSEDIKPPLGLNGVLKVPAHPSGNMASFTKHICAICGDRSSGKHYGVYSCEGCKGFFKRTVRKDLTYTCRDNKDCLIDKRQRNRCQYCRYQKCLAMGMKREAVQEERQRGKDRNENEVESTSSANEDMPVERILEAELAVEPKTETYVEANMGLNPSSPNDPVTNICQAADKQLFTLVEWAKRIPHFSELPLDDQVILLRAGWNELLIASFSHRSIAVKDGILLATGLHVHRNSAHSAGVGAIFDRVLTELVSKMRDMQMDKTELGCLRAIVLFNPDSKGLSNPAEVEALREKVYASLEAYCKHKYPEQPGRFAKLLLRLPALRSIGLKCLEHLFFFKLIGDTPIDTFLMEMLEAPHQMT

[11] = target: T3, Oxysterols receptor LXR-alpha (Homo sapiens, UniProt Q13133); assay: Agonist activity at GAL4-fused LXR LBD (unknown origin) expressed in HEK293T cells incubated for 24 by BrightGlo reagent based assay; type: cell-based
T3 sequence (Q13133 whole entry): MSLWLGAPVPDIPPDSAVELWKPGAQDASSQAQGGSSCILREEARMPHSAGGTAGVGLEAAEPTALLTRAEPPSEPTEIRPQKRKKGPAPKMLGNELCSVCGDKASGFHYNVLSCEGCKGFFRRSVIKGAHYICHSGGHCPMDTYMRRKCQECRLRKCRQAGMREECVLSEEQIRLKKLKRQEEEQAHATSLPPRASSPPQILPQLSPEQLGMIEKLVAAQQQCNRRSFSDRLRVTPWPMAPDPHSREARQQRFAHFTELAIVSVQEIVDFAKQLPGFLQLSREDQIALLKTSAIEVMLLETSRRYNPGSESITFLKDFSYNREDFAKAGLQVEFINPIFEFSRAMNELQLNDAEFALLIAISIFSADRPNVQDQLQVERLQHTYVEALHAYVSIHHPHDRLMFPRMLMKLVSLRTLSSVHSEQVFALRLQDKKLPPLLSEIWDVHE

[12] = target: T4, Progesterone receptor (Homo sapiens, UniProt P06401); assay: Agonist activity at Progesterone receptor (unknown origin) incubated for 2 hrs by TR-FRET assay
T4 sequence (P06401 whole entry): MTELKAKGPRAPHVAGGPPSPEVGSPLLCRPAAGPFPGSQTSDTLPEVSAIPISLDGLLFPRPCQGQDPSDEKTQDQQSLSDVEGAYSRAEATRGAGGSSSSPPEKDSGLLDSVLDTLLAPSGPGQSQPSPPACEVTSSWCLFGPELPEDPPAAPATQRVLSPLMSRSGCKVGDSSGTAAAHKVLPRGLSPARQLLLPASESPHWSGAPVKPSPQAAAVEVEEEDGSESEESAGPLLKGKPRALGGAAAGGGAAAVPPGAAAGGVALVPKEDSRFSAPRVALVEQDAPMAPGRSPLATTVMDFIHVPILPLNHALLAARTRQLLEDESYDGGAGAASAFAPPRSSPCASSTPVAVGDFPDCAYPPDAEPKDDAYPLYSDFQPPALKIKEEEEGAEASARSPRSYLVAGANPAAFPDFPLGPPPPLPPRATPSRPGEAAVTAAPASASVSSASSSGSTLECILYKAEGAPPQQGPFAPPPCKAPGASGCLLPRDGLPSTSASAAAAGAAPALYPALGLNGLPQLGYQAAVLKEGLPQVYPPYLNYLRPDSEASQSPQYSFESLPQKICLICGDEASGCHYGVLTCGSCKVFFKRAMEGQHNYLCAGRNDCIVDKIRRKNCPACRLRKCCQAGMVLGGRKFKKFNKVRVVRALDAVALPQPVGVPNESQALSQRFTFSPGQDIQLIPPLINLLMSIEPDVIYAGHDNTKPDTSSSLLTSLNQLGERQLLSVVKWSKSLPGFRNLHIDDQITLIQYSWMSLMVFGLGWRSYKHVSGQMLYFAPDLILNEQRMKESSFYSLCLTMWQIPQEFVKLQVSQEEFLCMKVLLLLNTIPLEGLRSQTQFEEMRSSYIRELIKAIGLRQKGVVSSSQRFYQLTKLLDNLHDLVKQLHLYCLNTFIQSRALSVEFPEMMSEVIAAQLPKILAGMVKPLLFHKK

[13] = Half life in Wistar rat at 30 mg/kg, po; type: ADME, organism-based; details: in vivo
[14] = Cmax in Wistar rat at 10 mg/kg, po; type: ADME, organism-based; set-up: dose 10 mg/kg, route oral; details: in vivo

- Cmax [1]: 80.9 µM
- bioavailability [2]: 52%
- half-life [3]: 6.3 h
- Kp [4]: 1.5
- bioavailability [5]: 82%
- half-life [6]: 4.5 h
- half-life [7]: 3.9 h
- pEC50 [8]: 8.15
- pEC50 [10]: < 5.00
- pEC50 [11]: < 5.00
- pEC50 [12]: < 4.52
- half-life [13]: 6.3 h
- Cmax [14]: 12.4 µM
Compound: Cn1nc(C(=O)N(Cc2ccccc2)Cc2ccc(C(=O)O)cc2)c2c1-c1cc(Cl)ccc1OC2 [NIDUFEXOR]
- Activity [9]: Dose-dependent effect
